Test results: patent US20240148821A1, “PHARMACEUTICAL USE OF CYCLIC PEPTIDE COMPOUND” (CHUGAI SEIYAKU KABUSHIKI KAISHA, priority 2021, published 2024)
Numbered stars: 1 amine (or outer) side, 2 acyl side, 3 side chain; on linkers, the order of the positions; unused ones are H or OH. Bridge positions count the residues as written; N and C are the ends. Square brackets hold non-standard residues; d marks the D form. Peptide text beside a SMILES is read from it. * marks the point of attachment. hPhe(3,5-F2-4-CF3) = N[C@@H](CCc1cc(F)c(C(F)(F)F)c(F)c1)C(=O)O; hPhe(3-Cl-4-CF3) = N[C@@H](CCc1ccc(C(F)(F)F)c(Cl)c1)C(=O)O; hPhe(3-F,4-CF3) = N[C@@H](CCc1ccc(C(F)(F)F)c(F)c1)C(=O)O; NEtPhe(4-CF3) = CCN[C@@H](Cc1ccc(C(F)(F)F)cc1)C(=O)O; X7 = O=C([C@@H]1C[C@H](N2CCC(F)(F)CC2)CN1[*:1])[*:2]; NMePhe(4-CF3) = CN[C@@H](Cc1ccc(C(F)(F)F)cc1)C(=O)O; NEtPhe(4-Me) = CCN[C@@H](Cc1ccc(C)cc1)C(=O)O; NMePhe(4-Cl) = CN[C@@H](Cc1ccc(Cl)cc1)C(=O)O; NMePhe(4-Me) = CN[C@@H](Cc1ccc(C)cc1)C(=O)O; NMePhe(4-F) = CN[C@@H](Cc1ccc(F)cc1)C(=O)O; NMedβ3hAla = C[C@H](CC(=O)[*:2])N(C)[*:1]; NMeAla(cPent) = CN[C@@H](CC1CCCC1)C(=O)O; hNle(7,7-F2) = N[C@@H](CCCCC(F)F)C(=O)O; NMeGly(cPent) = CN[C@H](C(=O)O)C1CCCC1; NMe3Pal = CN[C@@H](Cc1cccnc1)C(=O)O; NMeCha = CN[C@@H](CC1CCCCC1)C(=O)O; NMehLeu = CN[C@@H](CCC(C)C)C(=O)O; Hyp = O=C(O)[C@@H]1C[C@@H](O)CN1; NEtLeu = CCN[C@@H](CC(C)C)C(=O)O; NMeChg = CN[C@H](C(=O)O)C1CCCCC1; NMeI = CC[C@H](C)[C@H](NC)C(=O)O; NMeD = CN[C@@H](CC(=O)O)C(=O)O; NMeL = CN[C@@H](CC(C)C)C(=O)O; hLeu = CC(C)CC[C@H](N)C(=O)O; NMeV = CN[C@H](C(=O)O)C(C)C; d(β3hA) = C[C@@H](N)CC(=O)O; NMeS = CN[C@@H](CO)C(=O)O; Morpholide = C1CN(*)CCO1; NMeA = CN[C@@H](C)C(=O)O; NMeAib = CNC(C)(C)C(=O)O; Piperidide = C1CCN(*)CC1; dNMeA = CN[C@H](C)C(=O)O; Ac5c = NC1(C(=O)O)CCCC1; Aze = O=C(O)[C@@H]1CCN1; Sar = CNCC(=O)O; Propyl = CCC*

Key:
[1] = test system: Human pancreatic cancer cell line AsPC-1 (G12D mutation Kras); assay: AsPC-1 cell growth inhibition (AsPC-1 CGI); format: cell-based; details: read-out: AsPC-1 cell growth inhibition, 50% growth inhibitory concentration (IC50 value); 96 hours, CellTiter-Glo, values classified in ranges
[2] = target: protein-protein interaction between Kras and SOS1 (biotin-tagged human Kras loaded with GDP, His-tagged human SOS1) (Homo sapiens (Human), UniProt P01116, G12D); assay: Protein-protein interaction inhibition between Kras and SOS1 (KrasG12D-SOS PPI) using AlphaScreen; format: biochemical; details: AlphaScreen; biotin-tagged human Kras loaded with GDP, His-tagged human SOS1; read-out: KRAS G12D-SOS PPI IC50;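 also: kras produced in E. coli, Ni-coupled donor beads and streptavidin acceptor beads, excitation 680 nm with emission detected at 520–620 nm via singlet oxygen transfer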

Row | SMILES | IC50 [1] [nM] | IC50 [2] [nM]
1 | CC[C@H](C)[C@@H]1NC(=O)[C@H](CC(C)C)N(C)C(=O)C[C@@H](C)N(C)C(=O)[C@H](CC(C)C)NC(=O)C(C)(C)N(C)C(=O)[C@H](CC(C)C)NC(=O)[C@H](CCc2ccc(C(F)(F)F)c(Cl)c2)NC(=O)CN(C)C(=O)[C@H](Cc2ccc(C)cc2)N(C)C(=O)CN(C)C(=O)CN(C)C1=O [Compound 1388] (cyclo(I[Sar][Sar][NMePhe(4-Me)][Sar][hPhe(3-Cl-4-CF3)]L[NMeAib]L[NMedβ3hAla][NMeL])) | > 500 | 10
2 | CC(C)C[C@H]1C(=O)N[C@@H](CCCCC(F)F)C(=O)N(C)[C@@H](C)C(=O)N2CC[C@H]2C(=O)N(C)[C@@H](CC2CCCCC2)C(=O)N(C)CC(=O)N[C@@H](CCc2ccc(C(F)(F)F)c(Cl)c2)C(=O)N2CCC[C@H]2C(=O)NC2(CCCC2)C(=O)N(C)[C@@H](C(C)C)C(=O)N(C)[C@H](C(=O)N2CCCCC2)CC(=O)N1C [Compound 145] ([NMeL][hNle(7,7-F2)][NMeA][Aze][NMeCha][Sar][hPhe(3-Cl-4-CF3)]P[Ac5c][NMeV][NMeD]-Piperidide; lactam N-11) | > 500 | 25
3 | CC[C@H](C)[C@@H]1NC(=O)[C@H](CC2CCCC2)N(C)C(=O)C[C@@H](C(=O)N2CCOCC2)N(C)C(=O)[C@H](C2CCCC2)N(C)C(=O)C2(CCCC2)NC(=O)[C@@H]2CCCN2C(=O)[C@H](CCc2ccc(C(F)(F)F)c(Cl)c2)NC(=O)CN(C)C(=O)[C@H](C2CCCC2)N(C)C(=O)[C@@H]2CCN2C(=O)[C@H](C)N(C)C1=O [Compound 1173] ([NMeAla(cPent)]I[NMeA][Aze][NMeGly(cPent)][Sar][hPhe(3-Cl-4-CF3)]P[Ac5c][NMeGly(cPent)][NMeD]-Morpholide; lactam N-11) | ≤ 20 | 0.74
4 | CC[C@H](C)[C@@H]1NC(=O)[C@H](C)N(C)C(=O)C[C@@H](C)NC(=O)[C@H](C(C)C)N(C)C(=O)C2(CCCC2)NC(=O)[C@@H]2CCCN2C(=O)[C@H](CCc2ccc(C(F)(F)F)c(Cl)c2)NC(=O)[C@@H](C)N(C)C(=O)[C@H](Cc2ccc(F)cc2)N(C)C(=O)[C@@H]2CCN2C(=O)[C@H](C)N(C)C1=O [Compound 1702] (cyclo([Ac5c][NMeV][d(β3hA)][NMeA]I[NMeA][Aze][NMePhe(4-F)][dNMeA][hPhe(3-Cl-4-CF3)]P)) | > 500 | 31
5 | CCCOC[C@H]1C(=O)N(C)CC(=O)N[C@@H](CCc2ccc(C(F)(F)F)c(Cl)c2)C(=O)N2CCC[C@H]2C(=O)NC2(CCCC2)C(=O)N(C)[C@@H]([C@@H](C)CC)C(=O)N(C)[C@H](C(=O)N2CCCCC2)CC(=O)N(C)[C@@H](CC(C)C)C(=O)N[C@@H]([C@@H](C)CC)C(=O)N(C)[C@@H](C)C(=O)N2CC[C@H]2C(=O)N1C [Compound 690] ([NMeL]I[NMeA][Aze][NMeS](Propyl)[Sar][hPhe(3-Cl-4-CF3)]P[Ac5c][NMeI][NMeD]-Piperidide; lactam N-11) | ≤ 20 | 1.8
6 | CC[C@H](C)[C@@H]1NC(=O)[C@H](CC(C)C)N(C)C(=O)C[C@@H](C(=O)N2CCCCC2)N(C)C(=O)[C@H](CCC(C)C)N(C)C(=O)C2(CCCC2)NC(=O)[C@@H]2CCCN2C(=O)[C@H](CCc2ccc(C(F)(F)F)c(Cl)c2)NC(=O)CN(C)C(=O)[C@H](CC2CCCCC2)N(C)C(=O)[C@@H]2CCN2C(=O)[C@H](C)N(C)C1=O [Compound 1776] ([NMeL]I[NMeA][Aze][NMeCha][Sar][hPhe(3-Cl-4-CF3)]P[Ac5c][NMehLeu][NMeD]-Piperidide; lactam N-11) | > 500 | 24
7 | CCO[C@@H]1C[C@H]2C(=O)NC3(CCCC3)C(=O)N(C)[C@@H](C3CCCC3)C(=O)N(C)[C@H](C)CC(=O)N(C)[C@@H](CC(C)C)C(=O)N[C@@H]([C@@H](C)CC)C(=O)N(C)[C@@H](C)C(=O)N3CC[C@H]3C(=O)N(CC)[C@@H](Cc3ccc(C(F)(F)F)cc3)C(=O)N(C)CC(=O)N[C@@H](CCc3cc(F)c(C(F)(F)F)c(F)c3)C(=O)N2C1 [Compound 466] (cyclo([Ac5c][NMeGly(cPent)][NMedβ3hAla][NMeL]I[NMeA][Aze][NEtPhe(4-CF3)][Sar][hPhe(3,5-F2-4-CF3)][Hyp](Et))) | ≤ 20 | 3.1
8 | CC[C@H](C)[C@@H]1NC(=O)[C@H](CC(C)C)N(C)C(=O)C[C@@H](C(=O)N(C)C)N(C)C(=O)[C@H]([C@@H](C)CC)N(C)C(=O)C2(CCCC2)NC(=O)[C@@H]2CCCN2C(=O)[C@H](CCc2ccc(C(F)(F)F)c(Cl)c2)NC(=O)CN(C)C(=O)[C@H](Cc2ccc(C)cc2)N(CC)C(=O)[C@@H]2CCN2C(=O)[C@H](C)N(C)C1=O [Compound 866] ([NMeL]I[NMeA][Aze][NEtPhe(4-Me)][Sar][hPhe(3-Cl-4-CF3)]P[Ac5c][NMeI][NMeD]-NMe2; lactam N-11) | ≤ 20 | 1.2
9 | CC[C@H](C)[C@@H]1NC(=O)[C@H](C)N(C)C(=O)C[C@@H](C(=O)N2CCCCC2)N(C)C(=O)[C@H](C(C)C)N(C)C(=O)C2(CCCC2)NC(=O)[C@@H]2C[C@H](N3CCC(F)(F)CC3)CN2C(=O)[C@H](CCc2ccc(C(F)(F)F)c(Cl)c2)NC(=O)CN(C)C(=O)[C@H](CC2CCCCC2)N(C)C(=O)CN(C)C(=O)CN(C)C1=O [Compound 460] ([NMeA]I[Sar][Sar][NMeCha][Sar][hPhe(3-Cl-4-CF3)][X7][Ac5c][NMeV][NMeD]-Piperidide; lactam N-11) | > 500 | 1
10 | CC[C@H](C)[C@@H]1NC(=O)[C@H](CC(C)C)N(C)C(=O)C[C@@H](C(=O)N(C)C)N(C)C(=O)[C@H](C2CCCC2)N(C)C(=O)C2(CCCC2)NC(=O)[C@@H]2CCCN2C(=O)[C@H](CCc2cc(F)c(C(F)(F)F)c(F)c2)NC(=O)CN(C)C(=O)[C@H](Cc2ccc(C)cc2)N(C)C(=O)[C@@H]2CCN2C(=O)[C@H](C)N(C)C1=O [Compound 965] ([NMeL]I[NMeA][Aze][NMePhe(4-Me)][Sar][hPhe(3,5-F2-4-CF3)]P[Ac5c][NMeGly(cPent)][NMeD]-NMe2; lactam N-11) | ≤ 20 | 0.86
11 | CC[C@H](C)[C@@H]1NC(=O)[C@H](C)N(C)C(=O)C[C@@H](C)NC(=O)[C@H](C2CCCC2)N(C)C(=O)C2(CCCC2)NC(=O)[C@@H]2CCCN2C(=O)[C@H](CCc2ccc(C(F)(F)F)c(Cl)c2)NC(=O)[C@@H](C)N(C)C(=O)[C@H](Cc2cccnc2)N(C)C(=O)[C@@H]2CCN2C(=O)[C@H](C)N(C)C1=O [Compound 1011] (cyclo([Ac5c][NMeGly(cPent)][d(β3hA)][NMeA]I[NMeA][Aze][NMe3Pal][dNMeA][hPhe(3-Cl-4-CF3)]P)) | > 500 | 38
12 | CCO[C@@H]1C[C@H]2C(=O)NC3(CCCC3)C(=O)N(C)[C@@H](C3CCCCC3)C(=O)N(C)[C@H](C(=O)N3CCOCC3)CC(=O)N(C)[C@@H](CC(C)C)C(=O)N[C@@H]([C@@H](C)CC)C(=O)N(C)CC(=O)N(C)CC(=O)N(C)[C@@H](CC3CCCCC3)C(=O)N(C)CC(=O)N[C@@H](CCc3ccc(C(F)(F)F)c(Cl)c3)C(=O)N2C1 [Compound 1990] ([NMeL]I[Sar][Sar][NMeCha][Sar][hPhe(3-Cl-4-CF3)][Hyp](Et)[Ac5c][NMeChg][NMeD]-Morpholide; lactam N-11) | ≤ 20 | 0.43
13 | CC(C)CC[C@@H]1NC(=O)[C@H](CC(C)C)N(C)C(=O)C[C@@H](C(=O)N2CCCCC2)N(C)C(=O)[C@H](C(C)C)N(C)C(=O)C2(CCCC2)NC(=O)[C@@H]2CCCN2C(=O)[C@H](CCc2ccc(C(F)(F)F)c(Cl)c2)NC(=O)CN(C)C(=O)[C@H](CC2CCCCC2)N(C)C(=O)[C@@H]2CCN2C(=O)[C@H](C)N(C)C1=O [Compound 1697] ([NMeL][hLeu][NMeA][Aze][NMeCha][Sar][hPhe(3-Cl-4-CF3)]P[Ac5c][NMeV][NMeD]-Piperidide; lactam N-11) | > 500 | 110
14 | CC[C@H](C)[C@@H]1NC(=O)[C@H](CC(C)C)N(C)C(=O)C[C@@H](C)N(C)C(=O)[C@H](CC(C)C)NC(=O)C(C)(C)N(C)C(=O)[C@H]([C@@H](C)CC)NC(=O)[C@H](CCc2ccc(C(F)(F)F)c(F)c2)NC(=O)CN(C)C(=O)[C@H](Cc2ccc(Cl)cc2)N(C)C(=O)CN(C)C(=O)CN(C)C1=O [Compound 332] (cyclo(I[NMeAib]L[NMedβ3hAla][NMeL]I[Sar][Sar][NMePhe(4-Cl)][Sar][hPhe(3-F,4-CF3)])) | > 500 | 210
15 | CC[C@H](C)[C@@H]1NC(=O)[C@H](CC(C)C)N(CC)C(=O)C[C@@H](C(=O)N2CCOCC2)N(C)C(=O)[C@H]([C@@H](C)CC)N(C)C(=O)C2(CCCC2)NC(=O)[C@@H]2CCCN2C(=O)[C@H](CCc2ccc(C(F)(F)F)c(Cl)c2)NC(=O)CN(C)C(=O)[C@H](Cc2ccc(C(F)(F)F)cc2)N(C)C(=O)[C@@H]2CCN2C(=O)[C@H](C)N(C)C1=O [Compound 1234] ([NEtLeu]I[NMeA][Aze][NMePhe(4-CF3)][Sar][hPhe(3-Cl-4-CF3)]P[Ac5c][NMeI][NMeD]-Morpholide; lactam N-11) | ≤ 20 | 4.5
